Test results reported in patent US20130217132A1, “METHODS, COMPOSITIONS AND USE FOR ENHANCING CHEMICAL TOLERANCE BY MICROORGANISMS” (priority 2009, published 2013).

Tested on: BW25113 ArecA transformed with the blank vector (pBTL-1)
Test: MIC assay of furfural, blank vector strain
Assay type: cell-based, E. coli
Conditions: for MIC of furfural: blank vector, FIG. 18B
Description: In one exemplary method, assays were performed to determine minimum inhibitory concentration (MIC) of ethanol, furfural and acetate for BW25113 and MG1655 E. coli strains. […] Cells from each strain were inoculated from the same optical density into a total of 100 μL of varying furfural concentrations in a minimal media, for example using MOPS. Cell growth in the first 24 hr or 48 hr in the presence of furfural was monitored. The left bar in each pair for each indicated strain represents a first concentration of furfural that inhibited bacterial growth after 24 hr. The right bar for each strain represents the first concentration that inhibited growth after 48 hr. The MIC reads were the average of triplicates (n=3), and error bars represent standard deviation. […] ArecA signifies strains where the gene has been knocked out as previously described.
The minimum inhibitory concentration (MIC) of furfural of MG1655 and BW25113 with or without lpcA overexpression was determined. MIC assays were performed as described in Example 13. […] MIC reads were average of triplicates (n=3), and error bars represent standard deviation. The SDS-PAGE gel image in FIG. 17C represents LPS level of the cells indicated above the gel image (duplicate of each cell sample was presented). LPS was extracted from the indicated cells grown to exponential phase. Loading of LPS the SDS-PAGE gel was normalized to the cell number. The gel was stained for visualization after desired separation of LPS was obtained.
In another exemplary method, MIC was determined when MG1655 and BW25113 strains were fed with various carbon sources. MIC assays were performed in the presence of furfural. Glucose, Xylose or Ribose was supplemented with a minimal media for cell growth. […] MICs were read at the indicated time (24 hr or 48 hr), the average of triplicates was presented and error bars represent standard deviation. ‘Blank vector’ refers to the pBTL-1 vector, which served as the control. […]

O=Cc1ccco1 [furfural, furan-2-carbaldehyde]
500 µg/mL: MIC (Escherichia coli, BW25113, read-out: MIC of furfural) | MIC of furfural (glucose as carbon source) | MIC of furfural (xylose as carbon source)
